# Laboratory results taken from publication PMC8800111 (The Journal of Biological Chemistry, 2021).
# Tests used:
# Type in all cases: cell-based
# [1] = target: proteins of U3A human fibrosarcoma cells (4462 proteins detected) (Homo sapiens, UniProt Q5T4S7); conditions: protein UBR4; soluble abundance after heat, U3A cells
# [2] = target: proteins of U3A human fibrosarcoma cells (4462 proteins detected) (Homo sapiens, UniProt Q9P2R7); conditions: protein SUCLA2; U3A, 10 μM, 2 h
# [3] = target: proteins of U3A human fibrosarcoma cells (4462 proteins detected) (Homo sapiens, UniProt P02786); conditions: protein TFRC; U3A cells
# [4] = target: proteins of U3A human fibrosarcoma cells (4462 proteins detected) (Homo sapiens, UniProt Q9NS69); conditions: protein TOMM22; soluble abundance after heat, U3A cells
# Chain of proteins of U3A human fibrosarcoma cells (4462 proteins detected) (Homo sapiens, UniProt Q9NS69) (Q9NS69 whole entry): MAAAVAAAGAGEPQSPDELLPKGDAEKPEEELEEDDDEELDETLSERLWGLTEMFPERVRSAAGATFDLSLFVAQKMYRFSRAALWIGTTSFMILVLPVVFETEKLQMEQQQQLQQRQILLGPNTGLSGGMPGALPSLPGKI
# [5] = target: proteins of U3A human fibrosarcoma cells (4462 proteins detected) (Homo sapiens, UniProt Q9H0A8); conditions: protein COMMD4; U3A cells
# [6] = target: proteins of U3A human fibrosarcoma cells (4462 proteins detected) (Homo sapiens, UniProt O00422); conditions: protein SAP18; soluble abundance after heat, U3A cells
# [7] = target: proteins of U3A human fibrosarcoma cells (4462 proteins detected) (Homo sapiens, UniProt Q9C0E2); conditions: protein XPO4; soluble abundance after heat, U3A cells
# Chain of proteins of U3A human fibrosarcoma cells (4462 proteins detected) (Homo sapiens, UniProt Q9C0E2) (Q9C0E2 whole entry): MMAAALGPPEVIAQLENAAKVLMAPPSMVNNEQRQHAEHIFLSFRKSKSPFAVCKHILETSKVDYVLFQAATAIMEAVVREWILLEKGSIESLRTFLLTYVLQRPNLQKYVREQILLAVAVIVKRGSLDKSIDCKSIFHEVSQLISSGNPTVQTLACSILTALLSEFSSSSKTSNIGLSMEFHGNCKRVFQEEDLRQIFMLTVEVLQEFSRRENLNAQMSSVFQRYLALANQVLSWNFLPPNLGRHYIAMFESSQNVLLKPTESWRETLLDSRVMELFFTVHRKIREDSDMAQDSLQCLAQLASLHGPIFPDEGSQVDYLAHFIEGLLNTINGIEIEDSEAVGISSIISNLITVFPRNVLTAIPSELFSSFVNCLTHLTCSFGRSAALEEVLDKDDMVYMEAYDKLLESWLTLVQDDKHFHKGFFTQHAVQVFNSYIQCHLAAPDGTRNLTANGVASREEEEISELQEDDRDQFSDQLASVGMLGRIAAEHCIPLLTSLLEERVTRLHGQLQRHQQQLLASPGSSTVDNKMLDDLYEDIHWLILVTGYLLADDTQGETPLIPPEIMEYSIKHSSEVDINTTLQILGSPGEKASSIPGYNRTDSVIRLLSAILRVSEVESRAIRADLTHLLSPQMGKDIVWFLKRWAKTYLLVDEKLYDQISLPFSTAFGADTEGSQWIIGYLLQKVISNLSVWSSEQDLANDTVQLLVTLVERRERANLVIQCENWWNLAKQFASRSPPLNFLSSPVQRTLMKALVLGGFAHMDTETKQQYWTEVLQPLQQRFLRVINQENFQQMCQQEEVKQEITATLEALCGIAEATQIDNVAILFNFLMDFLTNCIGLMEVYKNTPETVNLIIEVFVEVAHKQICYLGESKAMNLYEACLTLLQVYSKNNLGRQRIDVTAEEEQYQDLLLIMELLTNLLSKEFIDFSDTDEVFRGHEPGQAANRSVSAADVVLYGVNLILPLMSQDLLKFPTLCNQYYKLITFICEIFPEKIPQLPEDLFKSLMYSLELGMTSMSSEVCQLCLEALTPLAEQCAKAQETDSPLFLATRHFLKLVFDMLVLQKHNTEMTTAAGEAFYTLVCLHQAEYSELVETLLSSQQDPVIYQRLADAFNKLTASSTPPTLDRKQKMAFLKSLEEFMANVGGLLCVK
# [8] = target: proteins of U3A human fibrosarcoma cells (4462 proteins detected) (Homo sapiens, UniProt Q8NCN4); conditions: protein RNF169, U3A cells
# Chain of proteins of U3A human fibrosarcoma cells (4462 proteins detected) (Homo sapiens, UniProt Q8NCN4) (Q8NCN4 whole entry): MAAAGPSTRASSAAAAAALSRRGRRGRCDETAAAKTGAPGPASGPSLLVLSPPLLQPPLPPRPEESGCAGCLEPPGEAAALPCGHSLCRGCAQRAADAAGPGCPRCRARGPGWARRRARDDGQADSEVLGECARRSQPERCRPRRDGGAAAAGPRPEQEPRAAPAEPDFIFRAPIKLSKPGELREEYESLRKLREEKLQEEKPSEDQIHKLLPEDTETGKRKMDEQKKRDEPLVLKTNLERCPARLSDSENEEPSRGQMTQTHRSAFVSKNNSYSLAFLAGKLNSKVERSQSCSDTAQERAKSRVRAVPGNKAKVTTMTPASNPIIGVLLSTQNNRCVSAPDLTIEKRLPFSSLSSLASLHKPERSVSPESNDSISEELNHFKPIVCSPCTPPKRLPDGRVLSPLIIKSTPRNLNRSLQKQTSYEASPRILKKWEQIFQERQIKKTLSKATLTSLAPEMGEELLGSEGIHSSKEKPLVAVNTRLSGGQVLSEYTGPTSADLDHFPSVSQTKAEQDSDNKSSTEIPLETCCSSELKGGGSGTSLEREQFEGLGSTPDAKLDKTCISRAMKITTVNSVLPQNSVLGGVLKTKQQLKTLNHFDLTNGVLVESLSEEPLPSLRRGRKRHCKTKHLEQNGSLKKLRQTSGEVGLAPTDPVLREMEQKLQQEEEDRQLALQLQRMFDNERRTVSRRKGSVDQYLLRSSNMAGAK
# [9] = target: proteins of U3A human fibrosarcoma cells (4462 proteins detected) (Homo sapiens, UniProt Q13641); conditions: protein TPBG; soluble abundance after heat, U3A cells
# Chain of proteins of U3A human fibrosarcoma cells (4462 proteins detected) (Homo sapiens, UniProt Q13641) (Q13641 32-420): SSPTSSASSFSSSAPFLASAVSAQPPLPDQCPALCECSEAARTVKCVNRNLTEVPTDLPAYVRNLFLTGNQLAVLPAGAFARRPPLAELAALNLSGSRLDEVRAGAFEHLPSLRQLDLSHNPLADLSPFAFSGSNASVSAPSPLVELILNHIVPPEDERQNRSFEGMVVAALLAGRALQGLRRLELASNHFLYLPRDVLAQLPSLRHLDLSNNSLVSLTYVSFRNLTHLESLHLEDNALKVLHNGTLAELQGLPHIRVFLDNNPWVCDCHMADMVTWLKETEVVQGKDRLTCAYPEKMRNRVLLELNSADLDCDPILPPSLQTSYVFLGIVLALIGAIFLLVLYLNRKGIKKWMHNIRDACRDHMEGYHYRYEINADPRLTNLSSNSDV
# [10] = target: proteins of U3A human fibrosarcoma cells (4462 proteins detected) (Homo sapiens, UniProt P68366); conditions: protein TUBA4A; U3A cells
# [11] = target: proteins of U3A human fibrosarcoma cells (4462 proteins detected) (Homo sapiens, UniProt O76021); conditions: protein RSL1D1; soluble abundance after heat, U3A cells
# [12] = target: proteins of U3A human fibrosarcoma cells (4462 proteins detected) (Homo sapiens, UniProt Q16637); conditions: protein SMN1; SMN2; U3A, 10 μM, 2 h
# [13] = target: proteins of U3A human fibrosarcoma cells (4462 proteins detected) (Homo sapiens, UniProt P38432); conditions: protein COIL; soluble abundance after heat, U3A cells
# [14] = target: proteins of U3A human fibrosarcoma cells (4462 proteins detected) (Homo sapiens, UniProt Q495W5); conditions: protein FUT11; U3A cells
# [15] = target: proteins of U3A human fibrosarcoma cells (4462 proteins detected) (Homo sapiens, UniProt Q9Y281); conditions: protein CFL2, U3A cells
# [16] = target: proteins of U3A human fibrosarcoma cells (4462 proteins detected) (Homo sapiens, UniProt Q9UNN8); conditions: protein PROCR; U3A cells
# [17] = target: proteins of U3A human fibrosarcoma cells (4462 proteins detected) (Homo sapiens, UniProt Q9NWT1); conditions: protein PAK1IP1; U3A cells
# [18] = target: proteins of U3A human fibrosarcoma cells (4462 proteins detected) (Homo sapiens, UniProt Q8NBN3); conditions: protein TMEM87A; U3A cells
# [19] = target: proteins of U3A human fibrosarcoma cells (4462 proteins detected) (Homo sapiens, UniProt O94880); conditions: protein PHF14; U3A, 10 μM, 2 h
# [20] = target: proteins of U3A human fibrosarcoma cells (4462 proteins detected) (Homo sapiens, UniProt Q04721); conditions: protein NOTCH2, U3A cells
# Chain of proteins of U3A human fibrosarcoma cells (4462 proteins detected) (Homo sapiens, UniProt Q04721) (Q04721 26-2471): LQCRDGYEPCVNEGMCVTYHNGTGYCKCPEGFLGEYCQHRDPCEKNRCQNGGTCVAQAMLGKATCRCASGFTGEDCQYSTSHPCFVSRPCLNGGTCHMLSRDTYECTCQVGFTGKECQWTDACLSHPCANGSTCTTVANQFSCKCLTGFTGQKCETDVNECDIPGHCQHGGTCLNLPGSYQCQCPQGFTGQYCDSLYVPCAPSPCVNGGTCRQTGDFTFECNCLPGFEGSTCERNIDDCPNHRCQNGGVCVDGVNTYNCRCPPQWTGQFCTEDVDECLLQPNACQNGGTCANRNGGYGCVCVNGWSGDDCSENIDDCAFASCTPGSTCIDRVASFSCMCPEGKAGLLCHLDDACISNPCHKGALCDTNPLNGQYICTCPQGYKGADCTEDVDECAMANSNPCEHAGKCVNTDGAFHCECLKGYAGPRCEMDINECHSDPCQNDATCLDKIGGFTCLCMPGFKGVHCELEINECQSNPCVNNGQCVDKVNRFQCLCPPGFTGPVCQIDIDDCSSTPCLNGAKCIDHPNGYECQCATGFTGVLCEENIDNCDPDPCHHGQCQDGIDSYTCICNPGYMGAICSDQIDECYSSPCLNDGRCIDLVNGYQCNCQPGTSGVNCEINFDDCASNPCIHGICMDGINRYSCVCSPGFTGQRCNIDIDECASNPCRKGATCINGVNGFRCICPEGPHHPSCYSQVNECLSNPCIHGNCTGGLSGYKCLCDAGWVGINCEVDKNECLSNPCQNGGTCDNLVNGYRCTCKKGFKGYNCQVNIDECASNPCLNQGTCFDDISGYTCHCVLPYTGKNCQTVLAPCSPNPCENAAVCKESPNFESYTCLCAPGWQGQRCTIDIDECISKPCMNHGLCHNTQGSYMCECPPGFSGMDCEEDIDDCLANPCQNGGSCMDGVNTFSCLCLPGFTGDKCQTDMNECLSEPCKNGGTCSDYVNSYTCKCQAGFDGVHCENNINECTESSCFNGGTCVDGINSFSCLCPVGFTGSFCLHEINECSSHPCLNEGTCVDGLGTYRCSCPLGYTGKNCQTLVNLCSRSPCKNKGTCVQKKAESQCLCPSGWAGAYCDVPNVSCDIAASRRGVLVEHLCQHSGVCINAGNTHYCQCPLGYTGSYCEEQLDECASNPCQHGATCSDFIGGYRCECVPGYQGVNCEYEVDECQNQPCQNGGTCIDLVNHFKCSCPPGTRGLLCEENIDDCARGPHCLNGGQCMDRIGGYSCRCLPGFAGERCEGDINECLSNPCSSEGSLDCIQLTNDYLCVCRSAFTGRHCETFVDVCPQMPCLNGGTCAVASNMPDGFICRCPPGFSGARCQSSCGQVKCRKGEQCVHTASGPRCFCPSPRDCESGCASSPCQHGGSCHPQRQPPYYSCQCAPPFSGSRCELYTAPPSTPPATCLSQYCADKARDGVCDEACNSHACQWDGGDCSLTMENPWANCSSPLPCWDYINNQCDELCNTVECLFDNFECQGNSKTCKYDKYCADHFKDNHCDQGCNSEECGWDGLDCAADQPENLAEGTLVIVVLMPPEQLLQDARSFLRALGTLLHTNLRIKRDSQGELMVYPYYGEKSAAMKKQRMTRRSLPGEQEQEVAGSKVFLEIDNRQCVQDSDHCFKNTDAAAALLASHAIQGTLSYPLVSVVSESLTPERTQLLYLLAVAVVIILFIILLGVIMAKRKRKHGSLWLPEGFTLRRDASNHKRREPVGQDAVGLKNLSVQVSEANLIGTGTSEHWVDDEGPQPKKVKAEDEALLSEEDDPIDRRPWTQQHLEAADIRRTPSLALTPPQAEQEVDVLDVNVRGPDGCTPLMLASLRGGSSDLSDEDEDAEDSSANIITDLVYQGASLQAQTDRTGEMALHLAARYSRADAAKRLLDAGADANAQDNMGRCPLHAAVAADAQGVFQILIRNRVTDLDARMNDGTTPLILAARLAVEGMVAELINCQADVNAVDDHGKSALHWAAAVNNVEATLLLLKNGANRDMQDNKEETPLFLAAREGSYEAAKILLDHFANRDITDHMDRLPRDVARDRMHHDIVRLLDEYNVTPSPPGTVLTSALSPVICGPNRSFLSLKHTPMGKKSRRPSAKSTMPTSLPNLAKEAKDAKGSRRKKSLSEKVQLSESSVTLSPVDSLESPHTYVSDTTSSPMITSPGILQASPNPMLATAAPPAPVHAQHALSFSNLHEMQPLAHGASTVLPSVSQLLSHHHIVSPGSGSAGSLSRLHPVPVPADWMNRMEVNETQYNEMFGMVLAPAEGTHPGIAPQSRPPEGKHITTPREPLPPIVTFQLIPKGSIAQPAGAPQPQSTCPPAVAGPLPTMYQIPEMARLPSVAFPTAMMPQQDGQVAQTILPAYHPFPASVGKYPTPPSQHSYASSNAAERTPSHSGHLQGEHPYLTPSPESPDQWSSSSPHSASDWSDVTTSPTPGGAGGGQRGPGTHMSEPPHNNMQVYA
# [21] = target: proteins of U3A human fibrosarcoma cells (4462 proteins detected) (Homo sapiens, UniProt Q9NNW5); conditions: protein WDR6, U3A cells
# [22] = target: proteins of U3A human fibrosarcoma cells (4462 proteins detected) (Homo sapiens, UniProt Q13162); conditions: protein PRDX4; U3A cells
# [23] = target: proteins of U3A human fibrosarcoma cells (4462 proteins detected) (Homo sapiens, UniProt Q9UHA3); conditions: protein RSL24D1; U3A cells
# [24] = target: proteins of U3A human fibrosarcoma cells (4462 proteins detected) (Homo sapiens, UniProt P62993); conditions: protein GRB2, U3A cells
# [25] = target: proteins of U3A human fibrosarcoma cells (4462 proteins detected) (Homo sapiens, UniProt Q8IXJ6); conditions: protein SIRT2; U3A cells
# [26] = target: proteins of U3A human fibrosarcoma cells (4462 proteins detected) (Homo sapiens, UniProt Q8N4Q1); conditions: protein CHCHD4; soluble abundance after heat, U3A cells
# Chain of proteins of U3A human fibrosarcoma cells (4462 proteins detected) (Homo sapiens, UniProt Q8N4Q1) (Q8N4Q1 whole entry): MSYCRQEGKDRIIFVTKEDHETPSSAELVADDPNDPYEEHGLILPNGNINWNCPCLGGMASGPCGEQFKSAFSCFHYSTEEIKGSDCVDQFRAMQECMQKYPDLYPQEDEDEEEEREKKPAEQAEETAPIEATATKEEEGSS
# [27] = target: proteins of U3A human fibrosarcoma cells (4462 proteins detected) (Homo sapiens, UniProt P54802); conditions: protein NAGLU, U3A cells
# [28] = target: proteins of U3A human fibrosarcoma cells (4462 proteins detected) (Homo sapiens, UniProt Q96K76); conditions: protein USP47; U3A cells
# [29] = target: proteins of U3A human fibrosarcoma cells (4462 proteins detected) (Homo sapiens, UniProt P54709); conditions: protein ATP1B3; U3A, 10 μM, 2 h
compound,measurement,setting,value
CCc1nc(N)nc(N)c1-c1ccc(Cl)cc1 [pyrimethamine],Log2 (PYR/DMSO),[1],0.14
same,"Log2 (PYR/DMSO), SUCLA2",[2],0.23
same,Log2 (PYR/DMSO),[3],0.16
same,Log2 (PYR/DMSO),[4],0.14
same,Log2 (PYR/DMSO),[5],0.21
same,Log2 (PYR/DMSO),[6],0.14
same,Log2 (PYR/DMSO),[7],0.13
same,Log2 (PYR/DMSO),[8],-0.03
same,Log2 (PYR/DMSO),[9],0.14
same,Log2 (PYR/DMSO),[10],0.17
same,Log2 (PYR/DMSO),[11],0.14
same,"Log2 (PYR/DMSO), SMN1; SMN2",[12],-0.18
same,Log2 (PYR/DMSO),[13],0.15
same,Log2 (PYR/DMSO),[14],0.17
same,Log2 (PYR/DMSO),[15],-0.04
same,Log2 (PYR/DMSO),[16],0.18
same,Log2 (PYR/DMSO),[17],0.18
same,Log2 (PYR/DMSO),[18],0.19
same,"Log2 (PYR/DMSO), PHF14",[19],-0.15
same,Log2 (PYR/DMSO),[20],-0.04
same,Log2 (PYR/DMSO),[21],-0.04
same,Log2 (PYR/DMSO),[22],0.16
same,Log2 (PYR/DMSO),[23],0.17
same,Log2 (PYR/DMSO),[24],-0.04
same,Log2 (PYR/DMSO),[25],0.19
same,Log2 (PYR/DMSO),[26],0.14
same,Log2 (PYR/DMSO),[27],-0.03
same,Log2 (PYR/DMSO),[28],0.19
same,"Log2 (PYR/DMSO), ATP1B3",[29],0.27
